Results reported in patent publication US20230123334A1, “AMINO LIPID COMPOUND, PREPARATION METHOD THEREFOR, AND APPLICATION THEREOF” (SHENZHEN SHENXIN BIOTECHNOLOGY CO., LTD., priority 2020, published 2023).

Tests used:
HEK293 cells [1] = assay: Preliminary screening as DNA vectors, GFP transfection of HEK293 cells; type: cell-based; details: HEK293 cells; lipid/DOPE liposome with 75 ng plasmid DNA (psin-EGFP-IRES-Puro); number of cells expressing GFP divided by total number of nuclei (Hoechst)
Summary of the method: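 Lipid + DOPE liposomes (NaOAc, pH 5.6) complexed w/ 75 ng psin-EGFP-IRES-Puro, 30 min RT; added to 3-5×10^4 HEK293/well, 37° C. Hoechst 0.2 μg/mL at 20-24 h, imaged after further 20-24 h. Efficiency = GFP+ cells / total nuclei.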

HEK293 cells [2] = assay: Preliminary screening as mRNA vectors, EGFP mRNA transfection of HEK293 cells; type: cell-based; details: HEK293 cells, 96-well plates, EGFP mRNA 50 ng per well; percentage of GFP fluorescent cells relative to total number of cells (Hoechst)
Summary of the method: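 Each well of HEK293 cells received 50 ng of EGFP mRNA. Efficiency was expressed as percent GFP-expressing cells over Hoechst-defined total cell number.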

CCCCCCCCNc1nc(NCCCCCC)nc(NCCN(C)C)n1 [Compound N6N8D1]
Absolute DNA transfection efficiency in HEK293 cells (HEK293 cells [1]): 0.0% | Absolute mRNA transfection efficiency in HEK293 cells (HEK293 cells [2]): 0.0%

CCCCCCCCCCCCCCCCNc1nc(NCCCCCCCCC)nc(NCCCN2CCN(C)CC2)n1 [Compound N9N16D9]
Absolute DNA transfection efficiency in HEK293 cells (HEK293 cells [1]): 0.0% | Absolute mRNA transfection efficiency in HEK293 cells (HEK293 cells [2]): 1.1%

CCCCCCCCCCCCCNc1nc(NCCCCCCCCCCCCC)nc(NCC2CCN(C)CC2)n1 [Compound N13N13D10]
Absolute DNA transfection efficiency in HEK293 cells (HEK293 cells [1]): 0.3% | Absolute mRNA transfection efficiency in HEK293 cells (HEK293 cells [2]): 2.9%

CCCCCCCCNc1nc(NCCCCCCC)nc(NCCN2CCCC2)n1 [Compound N7N8D3]
Absolute DNA transfection efficiency in HEK293 cells (HEK293 cells [1]): 0.5% | Absolute mRNA transfection efficiency in HEK293 cells (HEK293 cells [2]): 3.7%

CCCCCCCCCCCCN(CCCCCCCCCCCC)c1nc(NCCCCCCCCC)nc(NCCN2CCN(C)CC2)n1 [N9^2N12D5]
Absolute DNA transfection efficiency in HEK293 cells (HEK293 cells [1]): 0.0% | Absolute mRNA transfection efficiency in HEK293 cells (HEK293 cells [2]): 1.8%

CCCCCCCCCCCCCCCCSc1nc(NCCN(CC)CC)nc(SCCCCCCCCCCCCCC)n1 [Compound S14S16D7]
Absolute DNA transfection efficiency in HEK293 cells (HEK293 cells [1]): 1.1% | Absolute mRNA transfection efficiency in HEK293 cells (HEK293 cells [2]): 1.8%

CCCCCCCCCCCCCCCCNc1nc(NCCCCCCCCCCC)nc(NCCN2CCOCC2)n1 [Compound N11N16D2]
Absolute DNA transfection efficiency in HEK293 cells (HEK293 cells [1]): 0.0% | Absolute mRNA transfection efficiency in HEK293 cells (HEK293 cells [2]): 1.0%

CCCCCCCCCCCSc1nc(NCCCN2CCOCC2)nc(SCCCCCCCCCCC)n1 [Compound S11S11D8]
Absolute DNA transfection efficiency in HEK293 cells (HEK293 cells [1]): 3.6% | Absolute mRNA transfection efficiency in HEK293 cells (HEK293 cells [2]): 1.4%

CCCCCCCCCCCCCCSc1nc(NCCN(CC)CC)nc(SCCCCCCCC)n1 [Compound S8S14D7]
Absolute DNA transfection efficiency in HEK293 cells (HEK293 cells [1]): 7.5% | Absolute mRNA transfection efficiency in HEK293 cells (HEK293 cells [2]): 1.3%

CCCCCCCCCCCCCCCCCCNc1nc(NCCCCCCCCCCCCCCC)nc(NCCCN2CCN(C)CC2)n1 [Compound N15N18D9]
Absolute DNA transfection efficiency in HEK293 cells (HEK293 cells [1]): 0.7% | Absolute mRNA transfection efficiency in HEK293 cells (HEK293 cells [2]): 0.0%

CCCCCCCCCCCCCCCCCCSc1nc(NCCN2CCN(C)CC2)nc(SCCCCCCCC)n1 [Compound S8S18D5]
Absolute DNA transfection efficiency in HEK293 cells (HEK293 cells [1]): 9.6% | Absolute mRNA transfection efficiency in HEK293 cells (HEK293 cells [2]): 27.5%

CCCCCCCCCCCCCCCCNc1nc(NCCCCCCC)nc(NCC2CCN(C)CC2)n1 [Compound N7N16D10]
Absolute DNA transfection efficiency in HEK293 cells (HEK293 cells [1]): 1.8% | Absolute mRNA transfection efficiency in HEK293 cells (HEK293 cells [2]): 3.1%

CCCCCCCCCSc1nc(NCCCN(C)C)nc(SCCCCCCCCC)n1 [Compound S9S9D6]
Absolute DNA transfection efficiency in HEK293 cells (HEK293 cells [1]): 5.6% | Absolute mRNA transfection efficiency in HEK293 cells (HEK293 cells [2]): 33.0%

CCCCCCCCCNc1nc(NCCCCCCCCC)nc(NCCCN(C)C)n1 [Compound N9N9D6]
Absolute DNA transfection efficiency in HEK293 cells (HEK293 cells [1]): 0.2% | Absolute mRNA transfection efficiency in HEK293 cells (HEK293 cells [2]): 0.4%

CCCCCCCCCCCCN(CCCCCCCCCCCC)c1nc(NCCCCCCCCC)nc(NCCN(C)C)n1 [N9^2N12D1]
Absolute DNA transfection efficiency in HEK293 cells (HEK293 cells [1]): 0.0% | Absolute mRNA transfection efficiency in HEK293 cells (HEK293 cells [2]): 4.7%

CCCCCCCCCCCCCCCCSc1nc(NCCN(C)C)nc(SCCCCCCCCCC)n1 [Compound S10S16D1]
Absolute DNA transfection efficiency in HEK293 cells (HEK293 cells [1]): 7.2% | Absolute mRNA transfection efficiency in HEK293 cells (HEK293 cells [2]): 0.1%

CCCCCCCCCCCCN(CCCCCCCCCCCC)c1nc(NCCN2CCCCC2)nc(N(CCCCCCCCCCCC)CCCCCCCCCCCC)n1 [2N12^2N12D4]
Absolute DNA transfection efficiency in HEK293 cells (HEK293 cells [1]): 0.0% | Absolute mRNA transfection efficiency in HEK293 cells (HEK293 cells [2]): 2.6%

CCCCCCCCCCCNc1nc(NCCCCCC)nc(NCCCN(C)C)n1 [Compound N6N11D6]
Absolute DNA transfection efficiency in HEK293 cells (HEK293 cells [1]): 0.2% | Absolute mRNA transfection efficiency in HEK293 cells (HEK293 cells [2]): 0.0%

CCCCCCCCCCCCNc1nc(NCCCCCCCC)nc(NCCCN2CCN(C)CC2)n1 [Compound N8N12D9]
Absolute DNA transfection efficiency in HEK293 cells (HEK293 cells [1]): 0.0% | Absolute mRNA transfection efficiency in HEK293 cells (HEK293 cells [2]): 0.0%

CCCCCCCCCCCCNc1nc(NCCCCCCCCC)nc(NCCN2CCOCC2)n1 [Compound N9N12D2]
Absolute DNA transfection efficiency in HEK293 cells (HEK293 cells [1]): 0.0% | Absolute mRNA transfection efficiency in HEK293 cells (HEK293 cells [2]): 0.8%

CCCCCCCCCCCCCCCCSc1nc(NCCCN2CCN(C)CC2)nc(SCCCCCCCCCC)n1 [Compound S10S16D9]
Absolute DNA transfection efficiency in HEK293 cells (HEK293 cells [1]): 7.8% | Absolute mRNA transfection efficiency in HEK293 cells (HEK293 cells [2]): 19.9%

CCCCCCCCCCCCCCCCCCSc1nc(NCCCN2CCN(C)CC2)nc(SCCCCCCCCCC)n1 [Compound S10S18D9]
Absolute DNA transfection efficiency in HEK293 cells (HEK293 cells [1]): 6.5% | Absolute mRNA transfection efficiency in HEK293 cells (HEK293 cells [2]): 2.4%

CCCCCCCCCCCCN(CCCCCCCCCCCC)c1nc(NCCCCCCC)nc(NCCCN2CCOCC2)n1 [N7^2N12D8]
Absolute DNA transfection efficiency in HEK293 cells (HEK293 cells [1]): 1.6% | Absolute mRNA transfection efficiency in HEK293 cells (HEK293 cells [2]): 2.7%

CCCCCCCCCCCCCCCNc1nc(NCCCCCCC)nc(NCCN2CCN(C)CC2)n1 [Compound N7N15D5]
Absolute DNA transfection efficiency in HEK293 cells (HEK293 cells [1]): 0.0% | Absolute mRNA transfection efficiency in HEK293 cells (HEK293 cells [2]): 0.0%
